ChEMBL document CHEMBL1151191, “Rugulotrosins A and B: Two new antibacterial metabolites from an Australian isolate of a Penicillium sp” (J Nat Prod, 2004)

Key:
Bacillus subtilis = experiment: Antibacterial activity against Bacillus subtilis ATCC 6633 after 24 hrs by agar-based microtiter plate assay; assay type: functional
Bacillus cereus = experiment: Antibacterial activity against Bacillus cereus ATCC 11778 after 24 hrs by agar-based microtiter plate assay; assay type: organism-based
Enterococcus faecalis = experiment: Antibacterial activity against Enterococcus faecalis ATCC 29212 after 24 hrs by agar-based microtiter plate assay; assay type: functional
Staphylococcus aureus = experiment: Antibacterial activity against Staphylococcus aureus ATCC 25923 after 24 hrs by agar-based microtiter plate assay; assay type: organism-based

| SMILES | LD99 (Bacillus subtilis) | LD99 (Bacillus cereus) | LD99 (Enterococcus faecalis) | LD99 (Staphylococcus aureus) |
| --- | --- | --- | --- | --- |
| COC(=O)[C@]12Oc3c(Br)c(C)c(-c4c(C)c(Br)c(O)c5c4O[C@@]4(C(=O)OC)C(=C(O)CC[C@@H]4O)C5=O)c(O)c3C(=O)C1=C(O)CC[C@@H]2O | 6.3 µg/mL | – | – | – |
| COC(=O)[C@]12Oc3cc(C)c(-c4c(C)cc5c(c4O)C(=O)C4=C(O)CC[C@H](O)[C@@]4(C(=O)OC)O5)c(O)c3C(=O)C1=C(O)CC[C@@H]2O [RUGULOTROSIN A] | – | 3.1 µg/mL | 1.6 µg/mL | 200 µg/mL |
| COC(=O)[C@]12Oc3cc(C)c(-c4c(C)cc(O)c5c4O[C@@]4(C(=O)OC)C(=C(O)CC[C@@H]4O)C5=O)c(O)c3C(=O)C1=C(O)CC[C@@H]2O [RUGULOTROSIN B] | 25 µg/mL | – | – | – |
